# Results published in patent US6969583B2, “Method for detecting variant HBV” (Melbourne Health, priority 2000, dated 2005).
# Several values for one entry are separate records, joined by “and”; a condition that tells them apart may be missing. Equal values may be shown once. Read-outs that look alike come from different tables or passages of the source.
# Experiments:
# Type in all cases: cell-based, Hepatitis B virus
# [1] = tested on: wild-type HBV baculovirus; test: Antiviral testing with wild-type HBV baculovirus in HepG2 cells (Example 15, Southern blot densitometry); conditions: for inhibition at 1 µM / IC50: Hepatitis B virus, wt HBV; for inhibition at 1 µM: HepG2, ds HBV DNA band density vs untreated controls, estimated from fitted curve, negative = stimulation of replication; for IC50: ds HBV DNA bands, HepG2 cells
# Experimental: (§1) HepG2 cells were seeded at approximately 20-40% confluency and then were grown for 16-24 hours before infection. On the day of infection, triplicate plates of cells were trypsinized, and viable cell number was determined with a hemocytometer using Trypan blue exclusion. Average cell counts were calculated and used to determine the volume of high-titer viral stock necessary to infect cells at the indicated moi. HepG2 cells were washed one time with serum-free MEM to remove traces of serum. Baculovirus was diluted into MEM without serum to achieve the appropriate moi using volumes of 1.0, 0.5, and 0.25 ml to infect 100-mm, 60 mm, and 35-mm dishes, respectively. Baculovirus was adsorbed to HepG2 cells for one hour at 37° C. with gentle rocking every 15 minutes to ensure that the inoculum was evenly distributed. The inoculum was then aspirated and HepG2 cells were washed two times with phosphate-buffered saline and refed MEM-FBS with or without various concentrations of agents.
# (§2) HBV core particles were isolated from the cytoplasmic fraction of HepG2 cells lysed in 0.5% w/v NP-40. Cytoplasmic extracts were adjusted to 10 mmol/l McC12 and unprotected DNA was removed by an incubation to […] for 1.5 hours at 37° C. Following sequential phenol and chloroform extractions, nucleic acids were recovered by ethanol precipitation. Nucleic acids were resuspended in 50 μl/l TE (10 mmol/l Tris, 1 mmol/l ethylenedianinetetraacetic acid), normalized by OD260, and digested with 100 μg/ml RNase (Boehringer Mannheim, Indianapolis, Ind.) for one hour at 37° C. before analysis by electrophoresis and Southern blotting. A BioRad GS-670 imaging densitometer and the Molecular Analyst software (BioRad, Hecules Calif.) was used to analyze suitable exposures of Southern blots. Densitometry data was fitted to logistic dose response curves using the TableCurve2D software package from Jandel Scientific. Logistic dose response equations were used to calculate IC50 and IC90 values and co-efficients of variation.
# (§3) 3TC and PCV were a gift from Klaus Esser, SmithKline Beecham, Collegeville, Pa. PMEA was obtained from Gilead (Foster City, Calif.). 3TC was resuspended in sterile water, aliquoted, and frozen at −20° C. to avoid repeated freezing and thawing of the drug. PMEA was resuspended in sterile water after the pH was adjusted to 7.0 with NaOH. PCV was resuspended in dimethyl sulphoxide. Medium containing 3TC was prepared daily as needed using fresh aliquots of 3TC. In experiments in which 3TC treatment was initiated after viral infection, HepG2 cells were exposed to the indicated concentration of 3TC immediately after infection with HBV baculovirus. In experiments utilizing pretreatment with 3TC, cells were fed medium containing 3TC 16 hours prior to HBV baculovirus infection, HBV baculovirus infection was also carried out in medium containing 3TC, and cells were refed fresh medium containing 3TC immediately after completion of the infection and washing procedures. Treatment with PMEA and PCV were conducted in a similar manner.
# The dose effect of 3TC and PMEA, on wild-type HBV is shown graphically in FIG. 6 (A, B,) and a Southern Blot of intracellular HBV replicative intermediates and extracellular virus produced by HepG2 cells transduced with wild-type HBV-baculovirus in the presence of increasing concentrations of PCV is shown in FIG. 6C and the IC50 for each antiviral agent is shown in Table 2.
# [2] = tested on: L526M/M550V HBV baculovirus; test: Antiviral testing with L526M/M550V HBV baculovirus in HepG2 cells (Example 15); conditions: for inhibition at 1 µM / IC50: Hepatitis B virus, dual (L526M/M550V) HBV; for inhibition at 1 µM: HepG2, ds HBV DNA band density vs untreated controls, estimated from fitted curve, negative = stimulation; for IC50: ds HBV DNA bands, HepG2 cells
# Experimental: as §1, §2, §3
# [3] = tested on: precore (G1896A) recombinant HBV-baculovirus; test: Antiviral testing of the precore mutant (G1896A) HBV baculovirus in HepG2 cells (Example 17)
# Experimental: as §1, §2
# (§4) Conditioned medium was collected from HepG2 cells and subjected to centrifugation at 6,000 g for five minutes to remove cellular debris. HBV particles were precipitated with 10% w/v PEG 8000 and were concentrated by centrifugation at 12,000 ×g. Viral pellets were resuspended us 1 ml of MEM-FBS and divided into two aliquots. One set of aliquots was treated with 750 μg/ml Pronase for one hour and then with […] DNase 1 for one hour. Both sets of aliquots were then digested with Proteinase K, and extracted with phenol and chloroform. DNA was precipitated with 0.1 volume of 3 mol/l sodium acetate and 1 volume of isopropanol. Ten micrograms of transfer RNA was added as a carrier during precipitation. Pellets were resuspended in 25 μl of TE and digested with 0.5 mg/ml RNase for one hour. DNA was then analyzed by electrophoresis and Southern blotting.
# as §3
# L526M HBV baculovirus = test: Antiviral testing with L526M HBV baculovirus in HepG2 cells (Example 15); conditions: for inhibition at 1 µM / IC50: Hepatitis B virus
# Experimental: as §1, §2, §3
# M550I HBV baculovirus = test: Antiviral testing with M550I HBV baculovirus in HepG2 cells (Example 15); conditions: for inhibition at 1 µM / IC50: Hepatitis B virus, 550 (M550I) HBV; for inhibition at 1 µM: ds HBV DNA band density vs untreated controls, estimated from fitted curve, negative = stimulation; for IC50: ds HBV DNA bands
# Experimental: as §1, §2, §3
# [4] = tested on: wild-type (WT) recombinant HBV-baculovirus; test: Antiviral testing, wild-type (1.3x genomic length) recombinant HBV-baculovirus in HepG2 cells (Example 17)
# Experimental: as §1, §2, §4, §3
# [5] = tested on: L526M/M550V recombinant HBV-baculovirus; test: Antiviral testing, L526M/M550V recombinant HBV-baculovirus in HepG2 cells (Example 17); conditions: intracellular single-stranded HBV DNA, NDR = no dose response
# Experimental: as §1
# (§5) HBV core particles were isolated from the cytoplasmic fraction of HepG2 cells lysed in 0.5% w/v NP-40. […]
# (§6) Conditioned medium was collected from HepG2 cells and subjected to centrifugation at 6,000 g for five minutes to remove cellular debris. […] DNA was then analyzed by electrophoresis and Southern blotting. […]
# [6] = tested on: Precore/M550I recombinant HBV-baculovirus; test: Antiviral testing, Precore/M550I recombinant HBV-baculovirus in HepG2 cells (Example 17); conditions: NDR = no dose response
# Experimental: as §1, §2
# as §4, with “Pellets were resuspended in 25 μl of TE and digested with 0.5 mg/ml RNase for one hour.” left out, “blotting. […]” for “blotting.”
# [7] = tested on: any HBV/baculovirus variant encoding the mutations at M550I or L526M/M550V; test: Southern blots of HBV DNA from HepG2 cells transduced with lamivudine-resistant recombinant HBV-baculovirus variants (Example 17); conditions: intracellular and extracellular HBV DNA, no dose response could be plotted
# Experimental: as §1, §5, §6
# [8] = tested on: Precore/L526M/M550V recombinant HBV-baculovirus; test: Antiviral testing, Precore/L526M/M550V recombinant HBV-baculovirus in HepG2 cells (Example 17); conditions: NDR = no dose response
# Experimental: as §1, §2
# as §4, with “Pellets were resuspended in 25 μl of TE and digested with 0.5 mg/ml RNase for one hour.” left out, “blotting. […]” for “blotting.”
# [9] = tested on: M550I recombinant HBV-baculovirus; test: Antiviral testing, M550I recombinant HBV-baculovirus in HepG2 cells (Example 17); conditions: intracellular single-stranded HBV DNA, NDR = no dose response
# Experimental: as §1, §5, §6
# [10] = extracellular relaxed circular HBV DNA
# [11] = intracellular single-stranded HBV DNA
structure (smiles),measurement,setting,value
"Nc1ccn([C@@H]2CS[C@H](CO)O2)c(=O)n1 [Lamivudine, (−)-b-L-2′,3′-dideoxy-3′-thiacytidine]",inhibition at 1 µM,[1],99.6%
same,IC50,[1],0.009 µM
same,Resistance Factor,[1],1
same,inhibition at 1 µM,[2],-15%
same,IC50,[2],86.2 µM
same,Resistance Factor,[2],9578
same,IC50,"[3]; Hepatitis B virus, HepG2, Precore (G1896A), extracellular relaxed circular HBV DNA, individual experiments behind the average, read-out: IC50, single experiments, EC RC",0.012 µM
same,IC50,"[3]; Hepatitis B virus, HepG2, read-out: IC50 (μM), EC RC, Precore (G1896A), extracellular relaxed circular HBV DNA, averages where footnoted",0.011 µM
same,IC50,"[3]; Hepatitis B virus, HepG2, read-out: IC50 (μM), IC SS, Precore (G1896A), intracellular single-stranded HBV DNA, averages where footnoted",0.0207 µM
same,IC50,"[3]; Precore (G1896A), extracellular relaxed circular HBV DNA, individual experiments behind the average, read-out: IC50, single experiments, EC RC",0.01 µM
same,IC50,"[3]; Precore (G1896A), intracellular single-stranded HBV DNA, individual experiments behind the average, read-out: IC50, single experiments, IC SS",14 nM (2×) and 32 nM
same,inhibition at 1 µM,"L526M HBV baculovirus; HepG2, 526 (L526M) HBV, ds HBV DNA band density vs untreated controls, estimated from fitted curve, negative = stimulation, read-out: Inhibition at 1 μM",85.8%
same,IC50,"L526M HBV baculovirus; 526 (L526M) HBV, ds HBV DNA bands, HepG2 cells, read-out: IC50",0.03 µM
same,shift in the IC50 compared to the wild-type,"L526M HBV baculovirus; L526M vs wild-type, FIG. 7A",> 0.5 log
same,Resistance Factor,L526M HBV baculovirus; {},3
same,inhibition at 1 µM,M550I HBV baculovirus; HepG2,26.7%
same,IC50,"M550I HBV baculovirus; HepG2 cells, read-out: IC50",3.8 µM
same,Resistance Factor,M550I HBV baculovirus,422
same,IC50,"[4]; Hepatitis B virus, HepG2, WT, intracellular single-stranded HBV DNA, individual experiments behind the average, read-out: IC50, single experiments, IC SS",0.067 µM
same,IC50,"[4]; Hepatitis B virus, HepG2, read-out: IC50 (μM), EC RC, WT, extracellular relaxed circular HBV DNA, averages where footnoted",0.018 µM
same,IC50,"[4]; Hepatitis B virus, HepG2, read-out: IC50 (μM), IC SS, WT, intracellular single-stranded HBV DNA, averages where footnoted",0.0697 µM
same,IC50,"[4]; WT, extracellular relaxed circular HBV DNA, individual experiments behind the average, read-out: IC50, single experiments, EC RC",0.022 µM and 0.0293 µM and 0.0095 µM
same,IC50,"[4]; WT, intracellular single-stranded HBV DNA, individual experiments behind the average, read-out: IC50, single experiments, IC SS",0.085 µM and 0.0572 µM
"Nc1nc2c(ncn2CCC(CO)CO)c(=O)[nH]1 [Penciclovir, 9-[4-hydroxy-3-(hydroxymethyl)but-1-yl]guanine]","IC50 (μM), IC SS",[5],NDR
same,inhibition at 1 µM,[1],7%
same,IC50,[1],11.5 µM
same,effect on wild-type HBV replication,"[1]; dose effect, FIG. 6, result in words",modest effect
same,Resistance Factor,[1],1
same,change in sensitivity of L526M/M550V,"[2]; FIG. 8A-8C, result in words",no substantial change
same,inhibition at 1 µM,[2],-10%
same,IC50,[2],370 µM
same,Resistance Factor,[2],32
same,"IC50 (μM), EC RC",[6]; [10],NDR
same,"IC50 (μM), IC SS",[6]; [11],NDR
same,resistance conferred by M550I or L526M/M550V changes,[7],high degree of resistance
same,IC50,"[3]; Hepatitis B virus, HepG2, Precore (G1896A), extracellular relaxed circular HBV DNA, averages where footnoted, read-out: IC50 (μM), EC RC",6 µM
same,IC50,"[3]; Hepatitis B virus, HepG2, Precore (G1896A), intracellular single-stranded HBV DNA, averages where footnoted, read-out: IC50 (μM), IC SS",85 µM
same,sensitivity of G1896A HBV compared with wild type HBV,[3]; result in words,may be more sensitive
same,Resistance Factor,"L526M HBV baculovirus; 526 (L526M) HBV, mutant IC50 divided by wt IC50, nearest integer",9
same,change in sensitivity of L526M compared to wild-type,"L526M HBV baculovirus; FIG. 7A-7C, result in words",No significant change
same,IC50,L526M HBV baculovirus; HepG2,103 µM
same,inhibition at 1 µM,"L526M HBV baculovirus; HepG2, read-out: Inhibition at 1 μM",-3%
same,"IC50 (μM), EC RC",[8]; [10],NDR
same,"IC50 (μM), IC SS",[8]; [11],NDR
same,inhibition at 1 µM,M550I HBV baculovirus; HepG2,-24%
same,IC50,"M550I HBV baculovirus; HepG2, extrapolated value, read-out: IC50 (μM), extrapolated value",1220 µM
same,Resistance Factor,M550I HBV baculovirus,106
same,IC50,"[4]; Hepatitis B virus, HepG2, WT, extracellular relaxed circular HBV DNA, averages where footnoted, read-out: IC50 (μM), EC RC",23 µM
same,IC50,"[4]; Hepatitis B virus, HepG2, WT, intracellular single-stranded HBV DNA, averages where footnoted, read-out: IC50 (μM), IC SS",226 µM
same,"IC50 (μM), IC SS",[9],NDR
